Data taken from PMC12029982, “The Mechanism of a Novel Mitochondrial-Targeted Icaritin Derivative in Regulating Apoptosis of BEL-7402 Cells Based on the SIRT3 and CypD-Mediated ROS/p38 MAPK Signaling Pathway” (Molecules, 2025).

Columns and labels:
A549 = experiment: MTT assay, antiproliferative activity; assay type: cell-based; conditions: Homo sapiens, 48 h drug exposure, mean ± SD
Description: (§1) Human cancer cell lines BEL-7402, A549, MCF-7, PC-3M, and normal renal cell line HEK293 were bought from the BeNa Culture Collection (Beijing, China). BEL7402, A549, and PC-3M were cultured in RPMI 1640 medium (Gibco, Carlsbad, CA, USA). MCF-7 and HEK293 were cultured in the DMEM medium (Gibco, CA, USA). The medium was supplemented with 10% fetal bovine serum (FBS) (CLARK, San Diego, CA, USA), 100 U/mL penicillin, and 0.1 mg/mL streptomycin (Beyotime, Nanjing, China). The cells were incubated in 5% CO2 at 37 °C.
(§2) The MTT assay was employed to assess the inhibitory effect of each compound on cell growth. A549, PC-3M, MCF-7, BEL-7402, and HEK293 cells in the logarithmic growth phase were seeded in 96-well culture plates at an inoculum density of 5 × 10^4 cells/mL. After overnight incubation at 37 °C in a 5% CO2 atmosphere, the cells fully adhered to the surface. Different concentrations of sample solutions (0, 3.125, 6.25, 12.5, 25, 50, 100 μmol/L) were added (100 μL) to treat the cells. After 48 h of drug treatment, 10 μL of a 5 mg/mL MTT solution was added to each well and incubated for 4 h at 37 °C. The supernatant was then discarded, and 150 μL of DMSO was added to dissolve the formazan. The mixture was shaken at room temperature for 15 min, and the absorbance (D) value was measured at 490 nm using a Microplate Reader (HBS-ScanY, Nanjing, China). The drug IC50 values were calculated using GraphPad Prism (v10.0). Each cell viability experiment was performed in triplicate.

BEL-7402 = experiment: MTT assay, antiproliferative activity; assay type: cell-based; conditions: Homo sapiens, 48 h drug exposure, mean ± SD
Description: as §1, §2

MCF-7 = experiment: MTT assay, antiproliferative activity; assay type: cell-based; conditions: Homo sapiens, MCF7, 48 h drug exposure, mean ± SD
Description: as §1, §2

PC-3M = experiment: MTT assay, antiproliferative activity; assay type: cell-based; conditions: Homo sapiens, 48 h drug exposure, mean ± SD
Description: as §1, §2

HEK293 = experiment: MTT assay, cytotoxicity to normal cell line; assay type: cell-based, human; conditions: Homo sapiens, HEK293; MTT, 48 h drug exposure, mean ± SD; normal cell line
Description: as §1, §2

| SMILES | IC50 (A549) [µM] | IC50 (BEL-7402) [µM] | IC50 (MCF-7) [µM] | IC50 (PC-3M) [µM] | IC50 (HEK293) [µM] |
| --- | --- | --- | --- | --- | --- |
| CCCCC(=O)Oc1cc(O)c2c(=O)c(O)c(-c3ccc(OC)cc3)oc2c1CC=C(C)C [Compound 5] | 97.8 ± 6.4 | 39.9 ± 2.06 | 48.9 ± 1.42 | 60.2 ± 3.88 | 77.2 ± 5.13 |
| COc1ccc(-c2oc3c(CC=C(C)C)c(OC(=O)CCCCBr)cc(O)c3c(=O)c2O)cc1 [Compound 1] | 35.8 ± 3.57 | 47.8 ± 2.65 | 25.8 ± 1.07 | 44.5 ± 2.15 | 46.8 ± 1.82 |
| COc1ccc(-c2oc3c(CC=C(C)C)c(OC(=O)CCCCCCCCBr)cc(O)c3c(=O)c2O)cc1 [Compound 3] | > 100 | > 100 | > 100 | > 100 | > 100 |
| O=c1[nH]cc(F)c(=O)[nH]1 [Compound 5-FU, 5-fluorouracil, reference compound] | 86.2 ± 7.94 | 39 ± 1.32 | 13.5 ± 2.78 | 58.7 ± 2.64 | > 100 |
| COc1ccc(-c2oc3c(CC=C(C)C)c(OC(=O)CCCCCCBr)cc(O)c3c(=O)c2O)cc1 [Compound 2] | > 100 | 40.6 ± 5.5 | 42.1 ± 5.47 | 76.1 ± 4.44 | > 100 |
| CCCCCCC(=O)Oc1cc(O)c2c(=O)c(O)c(-c3ccc(OC)cc3)oc2c1CC=C(C)C [Compound 6] | > 100 | 40.6 ± 5.17 | 45.6 ± 3.02 | > 100 | > 100 |
| COc1ccc(-c2oc3c(CC=C(C)C)c(OC(=O)CCCCCCCCCCBr)cc(O)c3c(=O)c2O)cc1 [Compound 4] | > 100 | > 100 | > 100 | 76 ± 4.69 | > 100 |

The next lines start with results.

| IC50 (A549) [µM] | IC50 (BEL-7402) [µM] | IC50 (MCF-7) [µM] | IC50 (PC-3M) [µM] | SMILES | IC50 (HEK293) [µM] |
| --- | --- | --- | --- | --- | --- |
| > 100 | > 100 | > 100 | > 100 | CCCCCCCCCCC(=O)Oc1cc(O)c2c(=O)c(O)c(-c3ccc(OC)cc3)oc2c1CC=C(C)C [Compound 8] | > 100 |
| 13.7 ± 0.92 | 3.85 ± 0.69 | 22.5 ± 1.78 | 20.6 ± 2.06 | COc1ccc(-c2oc3c(CC=C(C)C)c(OC(=O)CCCCCCCC[P+](c4ccccc4)(c4ccccc4)c4ccccc4)cc(O)c3c(=O)c2O)cc1 [Mito-ICT-3] | 55 ± 3.92 |
| 21.1 ± 2.67 | 2.85 ± 0.7 | 10.7 ± 0.35 | 33.6 ± 2.53 | COc1ccc(-c2oc3c(CC=C(C)C)c(OC(=O)CCCC[P+](c4ccccc4)(c4ccccc4)c4ccccc4)cc(O)c3c(=O)c2O)cc1 [Mito-ICT-1] | 47 ± 2.91 |
| 6.88 ± 0.62 | 3.23 ± 0.64 | 2.44 ± 0.81 | 0.24 ± 0.11 | COc1cccc2c1C(=O)c1c(O)c3c(c(O)c1C2=O)C[C@@](O)(C(=O)CO)C[C@@H]3O[C@H]1C[C@H](N)[C@H](O)[C@H](C)O1 [DOX, doxorubicin, reference compound] | > 100 |
| > 100 | 74.6 ± 4.83 | > 100 | > 100 | CCCCCCCCC(=O)Oc1cc(O)c2c(=O)c(O)c(-c3ccc(OC)cc3)oc2c1CC=C(C)C [Compound 7] | > 100 |
| 43.1 ± 1.93 | 21.8 ± 2.42 | 25.7 ± 1.89 | 63.6 ± 2.67 | COc1ccc(-c2oc3c(CC=C(C)C)c(O)cc(O)c3c(=O)c2O)cc1 [ICT, Icaritin] | 43.2 ± 3.05 |
| 10.7 ± 1.09 | 3.43 ± 0.91 | 23.7 ± 2.24 | 27.8 ± 1.74 | COc1ccc(-c2oc3c(CC=C(C)C)c(OC(=O)CCCCCC[P+](c4ccccc4)(c4ccccc4)c4ccccc4)cc(O)c3c(=O)c2O)cc1 [Mito-ICT-2] | 53.7 ± 5.15 |
